Experimental data: EP1095657A2, “Compositions for the regulation of cytokine activity” (priority 1992, dated 1994)

What was measured:
[1] = test system: experimental DTH reaction in mice; assay: In vivo bioassay of inhibition of experimental DTH reactivity (oxazolone ear swelling); parameters: species or system mice (BALB/c or CD1); key to effect on the experimental DTH reaction (monosaccharides): "N.E." indicates that no effect was observed at the tested dosage range of 0.000004-4 µg/gm mouse; settings: for DTH: at that dose, value in parentheses in the cell taken as positive control, not reported; for effect on the experimental DTH reaction (monosaccharides): dosage range of 0.000004-4 µg/gm mouse
Procedure: Groups of inbred BALB/c (Jackson Laboratories, Bar Harbor, ME) or of outbred CD1 (Weizmann Institute Animal Breeding Center, Rehovot, Israel) mice are sensitized on the shaved abdominal skin with 100 µl of 2% oxazolone (OX) in acetone/olive oil (4/1, v/v) applied topically. DTH sensitivity is elicited 5 days later as follows: mice are challenged with 20 µl of 0.5% OX (10 µl administered topically to each side of the ear) in acetone/olive oil. A constant area of the ear is measured immediately before challenge and 24 and 48 h later with a Mitutoyo engineer's micrometer. The individual measuring ear swelling is blinded to the identity of the groups of mice. The increment (△) of ear swelling is expressed as the mean in units of 10^-2 mm or 10^-4 inch (+SE) depending on the micrometer that is used. Percent inhibition is calculated as follows: %Inhibition= 1-((Treated-negative control)/(positive control-negative control)) [formula]
Mice are treated with LMWH as in Example 5.1, injected the day before primary sensitization to OX. On the fifth day after sensitization to OX, the mice are challenged to induce a DTH reaction, as described above.
The positive control is the DTH reaction elicited in immunized mice in the absence of treatment with LMWH. The negative control is the background swelling produced by the antigen in naive (non-immunized) mice.
BALB/c mice (at least 5 mice per group) were sensitized on the shaved abdomen with 3% 4-ethoxymethylene-2-phenyl oxazolone (OX; BDH Chemicals, GB) in acetone/olive oil applied topically. DTH sensitivity was elicited 5 days later as follows. Mice were challenged with 0.5% OX in acetone/olive oil. The ear was measured immediately before challenge and 24 h later with Mitutoyo engineer's micrometer (Japan). The individual measuring the swelling of the ear was blinded to the identity of the groups of mice. To interfere with DTH response, the low molecular weight immuno-regulatory fractions, diluted in PBS, were administrated subcutaneously into the back of the treated mice at the indicated time schedules and concentrations. Treated mice were inspected during and after (>2 months) the treatment and no major side-effects were observed clinically.
In particular, CD1 mice (available from the Weizmann Institute Animal Breeding Center, Rehovot, Israel), 4-12 mice per group, were treated as described in Section 5.2 or 6.8.

[2] = test system: adjuvant arthritis in Lewis rats; assay: Adjuvant arthritis (AA) in rats; type: in vivo
[3] = test system: mortality after gamma irradiation; assay: Radioprotective effect in gamma-irradiated mice; type: in vivo, BALB/c mice
Procedure: Groups of female BALB/c mice, 8 weeks old, 5-10 mice per group, were injected subcutaneously with either saline (0.1 ml, control), H-9392 (30 ng/mouse), or glucosamine (10,000 ng/mouse) 1 day before irradiation, and weekly thereafter until termination of the experiment on day 30. All the mice were irradiated to a dose of 700 rads using a ^60Co gamma radiation source.
In a separate experiment, groups of BALB/c mice (5 mice to a group) were likewise exposed to 750 rads of gamma-rays, except that these groups of mice were treated with test substances (saline at 0.1 ml per mouse; H-9392 at 0.3, 3, 30 and 300 ng/mouse; and glucosamine at 1, 10 and 100 µg/mouse) on the day before irradiation, on the sixth day after irradiation, and once again on the thirteenth day after irradiation only. All treatment ceased after the third and last administration.

IDDM of NOD mice = assay: Insulin dependent diabetes mellitus (IDDM) of NOD mice; type: in vivo
[4] = test system: secretion of active TNF-α by activated human CD4+ T cells; assay: Bioassay of TNF-α activity using human CD4+ T cells derived from PBLs (human PBL bioassay); settings: for Bioassay of TNF Activity, in words: conc range of 1 µg/ml - 0.01 pg/ml, inconsistent = not the same result in all three bioassays; for "R" value: zero assigned where no effect is observed
[5] = CD1 mice, s.c., dose giving Inhmax in the higher effective dose range
[6] = CD1 mice, s.c., higher effective dose range
[7] = CD1 mice, s.c., inhibitory, 0 = no effect

SMILES | Inhmax ([1]; CD1 mice, s.c.) | "R" value [1, 7] | Bioassay of TNF Activity, in words [4] | effect on the experimental DTH reaction, in words (disaccharide markers) ([1]; CD1 mice, s.c.) | further results
N[C@H]1C(O)O[C@H](CO)[C@H](O)[C@@H]1O (stereo partly drawn) [GalN, D-Galactosamine] | 50% | 1.25 x 10^6 % x (μg/gm)^-1 | – | – | Dose [1, 5]: 0.12 µg/gm; "R" value [1, 6]: 5.58 x 10^2 % x (µg/gm)^-1; Inhmax [1, 6]: 67%; effect on AA, in words ([2]; s.c. weekly, different dosages (FIG. 38C)): inhibitory effects but to a much lesser degree than that shown by glucosamine
N[C@H]1C(O)O[C@H](CO)[C@@H](O)[C@@H]1O (stereo partly drawn) [GlcN, 2-amino-2-deoxy-D-glucose] | 75% | 6.25 x 10^6 % x (μg/gm)^-1 | – | – | Dose [1, 5]: 0.4 µg/gm; "R" value [1, 6]: 2.2 x 10^2 % x (µg/gm)^-1; Inhmax [1, 6]: 88%; inhibition of the development of AA, of control levels ([2]; s.c. weekly, three dosage levels): 60-80%; mortality rate ([3]; 700 rads, by day 30, s.c. 1 day before irradiation and weekly, H-9392 30 ng/mouse, glucosamine 10,000 ng/mouse, saline 100%): 20%; activity in suppressing mortality after irradiation, in words ([3]; 750 rads, three administrations, 300 ng H-9392, 1 µg glucosamine): moderate activity in suppressing mortality; mice that had become diabetic (IDDM of NOD mice; at 4.5 months, H-9392 30 ng/mouse, glucosamine 10,000 ng/mouse s.c., all control mice diabetic): about 65%; mice that had died, in words (IDDM of NOD mice; by age 5 months, H-9392 30 ng, glucosamine 10,000 ng, all control mice had died): about half
O=S(=O)(O)N[C@H]1C(O)O[C@H](CO)[C@@H](O)[C@@H]1OS(=O)(=O)O (stereo partly drawn) [GlcN-2,3S, D-Glucosamine-2,3-disulfate] | 68% | 5.67 x 10^4 % x (μg/gm)^-1 | – | – | DTH ([1]; CD1 mice, s.c.): 6.3 ± 1 (19.7 ± 1.2) 10^-2 mm
O=S(=O)(O)N[C@H]1C(O)O[C@H](COS(=O)(=O)O)[C@@H](O)[C@@H]1O (stereo partly drawn) [GlcN-2,6S, D-Glucosamine-2,6-disulfate] | 61% | – | – | – | DTH ([1]; CD1 mice, s.c.): 7.7 ± 1 (19.7 ± 1.2) 10^-2 mm
O=S(=O)(O)N[C@H]1C(O)O[C@H](CO)[C@@H](O)[C@@H]1O (stereo partly drawn) [GlcN-2S, D-Glucosamine-2-N-sulfate] | – | 0 % x (μg/gm)^-1 | – | – | effect on the experimental DTH reaction (monosaccharides) ([1]; CD1 mice, s.c.): N.E.
N[C@H]1C(O)O[C@H](CO)[C@@H](O)[C@@H]1OS(=O)(=O)O (stereo partly drawn) [GlcN-3S, D-Glucosamine-3-sulfate] | – | 0 % x (μg/gm)^-1 | – | – | effect on the experimental DTH reaction (monosaccharides) ([1]; CD1 mice, s.c.): N.E.
N[C@H]1C(O)O[C@H](COS(=O)(=O)O)[C@@H](O)[C@@H]1O (stereo partly drawn) [GlcN-6S, D-Glucosamine-6-sulfate] | – | 0 % x (μg/gm)^-1 | – | – | effect on the experimental DTH reaction (monosaccharides) ([1]; CD1 mice, s.c.): N.E.
CC(=O)N[C@H]1C(O)O[C@H](CO)[C@@H](O[C@@H]2OC(C(=O)O)=C[C@H](O)[C@H]2O)[C@@H]1O (stereo partly drawn) [H-0895, 4-deoxy-4-en-iduronic acid-(α-1,4)-2-deoxy-2-N-acetylglucosamine] | – | – | Inconsistent | – | Inhmax column, value printed with +: augmentation of the DTH swelling ([1]; CD1 mice, s.c.): +92%; dose giving the augmenting effect on swelling ([1]; CD1 mice, s.c.): about 1.2 picograms disaccharide per gram mouse; DTH ([1]; CD1 mice, s.c.): 37.3 ± 0.7 (18.9 ± 0.7) 10^-2 mm; AA score against control, in words ([2]; 0.1 and 0.4 ng/rat s.c. weekly, day 24): not substantially different from control levels; effect on AA, in words ([2]; 0.1 and 0.4 ng/rat s.c. weekly, within about 2 weeks of induction): increased level of AA development
O=C(O)C1=C[C@H](O)[C@@H](O)[C@H](O[C@H]2[C@H](O)[C@@H](NS(=O)(=O)O)C(O)O[C@@H]2CO)O1 (some centres unmarked) [H-1145] | – | 0 % x (μg/gm)^-1 | – | neutral and N.E. | –
CC(=O)N[C@H]1C(O)O[C@H](COS(=O)(=O)O)[C@@H](O[C@@H]2OC(C(=O)O)=C[C@H](O)[C@H]2O)[C@@H]1O (some centres unmarked) [H-8642] | – | 0 % x (μg/gm)^-1 | Inconsistent | N.E. | –
CC(=O)N[C@H]1C(O)O[C@H](CO)[C@@H](O[C@@H]2OC(C(=O)O)=C[C@H](O)[C@H]2OS(=O)(=O)O)[C@@H]1O (some centres unmarked) [H-8767] | – | 0 % x (μg/gm)^-1 | Inconsistent | N.E. | –
N[C@H]1C(O)O[C@H](COS(=O)(=O)O)[C@@H](O[C@@H]2OC(C(=O)O)=C[C@H](O)[C@H]2OS(=O)(=O)O)[C@@H]1O (some centres unmarked) [H-8892] | – | 0 % x (μg/gm)^-1 | No effect | neutral and N.E. | "R" value [4]: 0 % x (pg/ml)^-1
N[C@H]1C(O)O[C@H](COS(=O)(=O)O)[C@@H](O[C@@H]2OC(C(=O)O)=C[C@H](O)[C@H]2O)[C@@H]1O (some centres unmarked) [H-9017] | – | 0 % x (μg/gm)^-1 | No effect | neutral and N.E. | "R" value [4]: 0 % x (pg/ml)^-1
N[C@H]1C(O)O[C@H](CO)[C@@H](O[C@@H]2OC(C(=O)O)=C[C@H](O)[C@H]2OS(=O)(=O)O)[C@@H]1O (some centres unmarked) [H-9142] | – | 0 % x (μg/gm)^-1 | Inconsistent | neutral and N.E. | –
O=C(O)C1=C[C@H](O)[C@@H](OS(=O)(=O)O)[C@H](O[C@H]2[C@H](O)[C@@H](NS(=O)(=O)O)C(O)O[C@@H]2COS(=O)(=O)O)O1 (stereo partly drawn) [H-9267, 2-O-sulfate-4-deoxy-4-en-iduronic acid-(α-1,4)-2-deoxy-2-N-sulfate-6-O-sulfateglucosamine] | 64% | 1.60 x 10^5 % x (μg/gm)^-1 | Inconsistent | – | DTH ([1]; CD1 mice, s.c.): 7.2 ± 1 (19.6 ± 1.2) 10^-2 mm; DTH Response ([1]; at the dose giving Inhmax, subcutaneous): 3.5 ± 1 10^-2mm; Dose ([1]; dose giving Inhmax, subcutaneous): 0.0005 µg/gm mouse; "R" value ([1]; inhibitory, maximum % inhibition of DTH divided by the dose giving it, s.c., 0 = no effect): 160,000 % x (µg/gm)^-1; Inhmax ([1]; maximum inhibition of DTH, subcutaneous): 80%
CC(=O)N[C@H]1C(O)O[C@H](COS(=O)(=O)O)[C@@H](O[C@@H]2OC(C(=O)O)=C[C@H](O)[C@H]2OS(=O)(=O)O)[C@@H]1O (stereo partly drawn) [H-9517, 2-O-sulfate-4-deoxy-4-en-iduronic acid-(α-1,4)-2-deoxy-2-N-acetyl-6-O-sulfateglucosamine] | 62% | 1.55 x 10^6 % x (μg/gm)^-1 | Inconsistent^c | – | DTH ([1]; CD1 mice, s.c.): 7.6 ± 1 (20.4 ± 0.7) 10^-2 mm
CC(=O)N[C@H]1C(O)O[C@H](CO)[C@@H](O)[C@@H]1O (some centres unmarked) [NAc-GlcN, N-Acetylglucosamine] | – | 0 % x (μg/gm)^-1 | – | – | effect on the experimental DTH reaction (monosaccharides) ([1]; CD1 mice, s.c.): N.E.
C[C@@H]1C[C@H]2[C@@H]3CCC4=CC(=O)C=C[C@]4(C)[C@@]3(F)[C@@H](O)C[C@]2(C)[C@@]1(O)C(=O)COP(=O)(O)O [dexamethasone phosphate] | – | – | – | – | course of AA after treatment has ended, in words ([2]; 100 µg per rat s.c. daily from day 12): suffered a relapse; effect on AA at 30 days post-induction, in words ([2]; weekly s.c. from day 12 to day 26, 120 ng disaccharide or 100 µg dexamethasone phosphate per rat): only a moderate reduction in the severity of the AA score
